Results as given in paper PMC7037393, “Synthesis, Structural, and Cytotoxic Properties of New Water-Soluble Copper(II) Complexes Based on 2,9-Dimethyl-1,10-Phenanthroline and Their One Derivative Containing 1,3,5-Triaza-7-Phosphaadamantane-7-Oxide” (Molecules, 2020).

Tests used:
[1] = test system: MCF7 (human breast adenocarcinoma); assay: Cytotoxicity on MCF7 cells, quantitative suspension test according to EN 14476; assay type: cell-based; conditions: observed 4 days, aqua media
Description: Normal human dermal fibroblasts (NHDF) (PromoCell, C-12302) were used as normal cells and LoVo (human colorectal adenocarcinoma, ATCC® CCL-229™), A549 (human lung carcinoma, ATCC, No. CCL-185 TM), MCF-7 (human breast adenocarcinoma, ATCC, No. HTB-22^TM) and HeLa (human cervix carcinoma, ATCC, No. CCL-2 TM) were used as cancer cells. They were cultured in DMEM, DMEM–F12 or EMEM (Lonza, CA, USA). Media were supplemented with 10% FBS (Biological Industries, Kibbutz Beit-Haemek, Israel), 2 mM L-glutamine (Biological Industries, Israel), 100 U/mL of penicillin and 100 µg/mL of streptomycin (Sigma, Neustadt an der Weinstrasse, Germany).
The 100 μL of suspension of NHDF, A549, HeLa, LoVo, and MCF7 cells at a density of 4 × 10^4 cells mL^−1 were incubated in a 96-well polystyrene plate (NUNC, Denmark) for 24 h. Product test solutions were prepared in DMEM, DMEM–F12, or EMEM supplemented with additional 2% FBS and 2 mM L-glutamine. Solutions of the reagents at concentrations from 460 (for 1), 454 (2), […] (3), 1242 (Cu(NO3)2), 1732 (PTA=O), and 1440 µM (dmphen) to 4.60 × 10^−6, 4.54 × 10^−6, 4.69 × 10^−6, 1.24 × 10^−5, 1.73 × 10^−5, and 1.44 × 10^−5 µM, respectively, were prepared and transferred (100 μL) into cell culture units (wells of microtiter plates) containing monolayer of cells. Eight units were inoculated with each dilution. Plates were incubated in 37 °C, 5% CO2 and observed daily for 4 days for the development of cytotoxic effect, using an inverted microscope (Olympus Corp., Hamburg, Germany, Axio Observer, Carl Zeiss MicroImaging GmbH). Then the wells were washed in phosphate buffered saline (PBS) and stained using DAPI (4′,6-diamidino-2-phenylindole) and propidium iodide (Merck, Darmstadt, Germany). The study used the fact that DAPI is able to be combined with cellular DNA, permeate through the membrane of cell, rapidly enter the nucleus of living cells and bind with DNA to form a DAPI-DNA complex. […] In cell culture these are cells that are apoptotic or damaged by any physical or chemical agent. Therefore, if these two fluorochrome are given at the same time, DAPI will get to healthy cells faster, while propidium iodide will stain dead or dying cells. The calculation of the ratio of cells counted on a specific area, allows to determine the potency of a substance in inhibiting a specific biological function (IC50).

[2] = molecular target: T1, human apo-transferrin (apo-Tf) (Homo sapiens, UniProt P02787); assay: Apo-transferrin interaction by fluorescence quenching (Stern-Volmer, binding, van't Hoff); conditions: for Kq (quenching rate constant): Kq = Ksv/τo, τo 2.5 ns; for Ka (association constant) / Ksv (Stern-Volmer quenching constant): PBS pH 7.40; for H^0 (enthalpy change) / S^0 (entropy change): van't Hoff, 300 and 310 K
T1 construct: purchased Sigma-Aldrich
T1 sequence (P02787 20-698): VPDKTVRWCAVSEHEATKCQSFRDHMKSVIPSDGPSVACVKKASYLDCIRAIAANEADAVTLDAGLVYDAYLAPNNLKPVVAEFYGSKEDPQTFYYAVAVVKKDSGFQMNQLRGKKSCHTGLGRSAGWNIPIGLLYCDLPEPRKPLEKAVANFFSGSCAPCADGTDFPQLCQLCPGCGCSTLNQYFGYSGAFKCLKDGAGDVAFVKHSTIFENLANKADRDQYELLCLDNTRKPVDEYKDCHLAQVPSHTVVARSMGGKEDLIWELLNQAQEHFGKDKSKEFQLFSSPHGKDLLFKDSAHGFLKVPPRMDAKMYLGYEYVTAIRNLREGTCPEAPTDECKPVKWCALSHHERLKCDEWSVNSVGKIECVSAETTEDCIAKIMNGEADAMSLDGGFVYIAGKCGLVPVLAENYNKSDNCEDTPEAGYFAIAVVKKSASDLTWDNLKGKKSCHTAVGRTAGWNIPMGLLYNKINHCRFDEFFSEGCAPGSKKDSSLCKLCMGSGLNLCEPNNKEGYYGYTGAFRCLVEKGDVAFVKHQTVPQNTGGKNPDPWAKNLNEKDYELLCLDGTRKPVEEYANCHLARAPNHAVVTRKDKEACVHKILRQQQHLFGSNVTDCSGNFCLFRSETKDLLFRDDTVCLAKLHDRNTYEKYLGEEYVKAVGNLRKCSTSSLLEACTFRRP
Text: There are two mechanisms of fluorescence quenching, dynamic and static, that can be distinguished based on the temperature dependency. Dynamic quenching is due to collisions between quencher and fluorophore and static quenching results from the formation of the ground state complex between the molecules. A modified Stern–Volmer equation (Equation (3)) was used to calculate Stern–Volmer quenching constants (KSV) and quenching rate constants (Kq) of the interactions between apo-transferrin and copper complexes and to determine the mechanism of fluorescence quenching. Fo/(Fo − F) = 1/fa + 1/(faKsv[Q])(3)
In the equation, Fo and F are the fluorescence intensities of protein in the absence and presence of the quencher in the concentration (Q), respectively; KSV is the Stern–Volmer quenching constant; and fa is the fraction of the fluorophore accessible to the quencher.
Kq, the quenching rate constant of the biomolecules, is expressed as:Kq = Ksv/τo(4) where τo is the fluorescence lifetime of protein without quencher. For apo-transferrin, the τo value is 2.5 ns.
Association constants (Ka) and number of binding sites (n) were determined based on the Equation (5):log {(Fo − F)/F} = logKa + nlog[Q](5) where Fo and F are the fluorescence intensities in the absence and presence of the quencher in the concentration (Q), respectively, Ka is the binding constant, and n is the number of binding sites.
It is known that interactions between proteins and small molecules include hydrogen bonds, van der Waals, and electrostatic forces as well hydrophobic interactions. Based on thermodynamic parameters, we determined the type of interaction of copper complexes with apo-transferrin.
∆G^0 = ∆H^0 − T∆S^0(7) where Ka is the bimolecular binding constant at the corresponding temperature (T); R is the gas constant; and ΔH^0, ΔS^0, and ΔG^0 are enthalpy, entropy, and free energy change, respectively.
High purity apo-transferrin (≥ 98%, Sigma-Aldrich, Steinheim, North Rhine-Westphalia, Germany) was used without prior purification. The stock solutions of the complexes were prepared in demineralized water (1 and 2) or ethanol (3). The apo-Tf was dissolved in PBS (pH 7.40). The molar ratios of the final samples in PBS were (protein):(drug) = 1:0–1:16 in PBS with the protein concentration equal 2 μM. Samples were incubated at 300 and 310 K for 5 min. The apo-Tf concentration was determined using ε (280 nm) = 11.2 mM^−1 × cm^−1.
Emission fluorescence spectra were recorded on Jasco 8200 spectrofluorimeter (Tokyo, Japan) in the range of 300–500 nm using 1.0 cm quartz cells. The λex was set to 280 nm and the excitation and emission slit widths were set to 5 nm. All fluorescence intensities were corrected (according to Equation (8)) for the inner filter and dilution effects and the corrected values were used to determine the quenching mechanism and binding data. […] Therefore, all spectra are shown as different spectra of (apo-Tf-copper complex)−(copper complex). Fcorr = exp(A280 + Aem/2) × Fexp(8)

[3] = Octanol-water partition coefficient (log P), UV-Vis; assay type: physicochemical; conditions: room temperature, 10^−5 M
Description: The log P values consistent to the octanol-water partition coefficient were adjusted to the solubility properties of the compounds [94]. Complexes 1–3 were dissolved in water, previously saturated with octanol with concentrations 10^−5 M. Into a 25-mL flask at room temperature with a magnetic stir bar was introduced initially 5 mL of octanol previously saturated with water and then 5 mL of the complex solutions in water. A two-phase mixture was stirred vigorously for 15 min and samples, which were measured by UV-Vis spectroscopy, were taken from the separated phases.

SMILES | IC50 [1] [nM] | G^0 (free energy change) ([2]; 300 K) [kcal/mol] | n (number of binding sites) ([2]; 300 K) | Kq (quenching rate constant) ([2]; 300K) | Ka (association constant) ([2]; 300K) | Ksv (Stern-Volmer quenching constant) ([2]; 300K) | G^0 (free energy change) ([2]; 310 K) [kcal/mol] | n (number of binding sites) ([2]; 310 K) | Kq (quenching rate constant) ([2]; 310K) | Ka (association constant) ([2]; 310K) | Ksv (Stern-Volmer quenching constant) ([2]; 310K) | H^0 (enthalpy change) [2] [kcal/mol] | S^0 (entropy change) [2] [J mol^−1 K^−1] | log P (octanol-water partition coefficient) [3] | Ksv values ([2]; 300 K) [M⁻¹] | Ksv values ([2]; 310 K) [M⁻¹]
Cc1ccc2ccc3ccc(C)nc3c2n1.F[P-](F)(F)(F)(F)F.O=P12CN3CN(CN(C3)C1)C2.O=[N+]([O-])[O-].[Cu+2] [Complex 1, [Cu(NO3)(PTA=O)(dmphen)][PF6]] | 570 ± 80 | -8.253 | 1.26 ± 0.033 | 1.00 ± 0.011 ·10^13 [M^−1s^−1] | 1.03 ± 0.16 ·10^6 [M^−1] | 2.50 ± 0.011 ·10^4 [M^−1] | -8.406 | 1.24 ± 0.036 | 1.17 ± 0.029 ·10^13 [M^−1s^−1] | 0.843 ± 0.17 ·10^6 [M^−1] | 2.92 ± 0.029 ·10^4 [M^−1] | -3.664 | 63.99 | 0.90 | – | –
Cc1ccc2ccc3ccc(C)nc3c2n1.Cc1ccc2ccc3ccc(C)nc3c2n1.F[P-](F)(F)(F)(F)F.[Cl-].[Cu+2] [Complex 2, [Cu(Cl)(dmphen)2][PF6]] | 570 ± 80 | -9.118 | 1.35 ± 0.050 | 1.61 ± 0.050 ·10^13 [M^−1s^−1] | 4.38 ± 0.24 ·10^6 [M^−1] | 4.03 ± 0.050 ·10^4 [M^−1] | -9.19 | 1.31 ± 0.066 | 2.27 ± 0.024 ·10^13 [M^−1s^−1] | 3.04 ± 0.32 ·10^6 [M^−1] | 5.69 ± 0.024 ·10^4 [M^−1] | -6.75 | 33.02 | 1.75 | – | –
CC#N.Cc1ccc2ccc3ccc(C)nc3c2n1.O=[N+]([O-])[O-].O=[N+]([O-])[O-].[Cu+2] [Complex 3, [Cu(NO3)2(dmphen)]∙MeCN] | 3450 ± 510 | -9.563 | 1.40 ± 0.076 | – | 9.26 ± 0.37 ·10^6 [M^−1] | 5.37 ± 0.023 ·10^4 [M^−1] | -9.888 | 1.42 ± 0.068 | 1.40 ± 0.062 ·10^13 [M^−1s^−1] | 9.38 ± 0.33 ·10^6 [M^−1] | 3.51 ± 0.062 ·10^4 [M^−1] | 230 | 136.57 | 1.11 | 53700 | 35100
